Calls of active or inactive are those of the source. No cut-off for these calls is given here.
How the values were obtained:
[1] = target: T1, Prostaglandin G/H synthase 1 (Rattus norvegicus, UniProt Q63921)
T1 sequence (Q63921 whole entry): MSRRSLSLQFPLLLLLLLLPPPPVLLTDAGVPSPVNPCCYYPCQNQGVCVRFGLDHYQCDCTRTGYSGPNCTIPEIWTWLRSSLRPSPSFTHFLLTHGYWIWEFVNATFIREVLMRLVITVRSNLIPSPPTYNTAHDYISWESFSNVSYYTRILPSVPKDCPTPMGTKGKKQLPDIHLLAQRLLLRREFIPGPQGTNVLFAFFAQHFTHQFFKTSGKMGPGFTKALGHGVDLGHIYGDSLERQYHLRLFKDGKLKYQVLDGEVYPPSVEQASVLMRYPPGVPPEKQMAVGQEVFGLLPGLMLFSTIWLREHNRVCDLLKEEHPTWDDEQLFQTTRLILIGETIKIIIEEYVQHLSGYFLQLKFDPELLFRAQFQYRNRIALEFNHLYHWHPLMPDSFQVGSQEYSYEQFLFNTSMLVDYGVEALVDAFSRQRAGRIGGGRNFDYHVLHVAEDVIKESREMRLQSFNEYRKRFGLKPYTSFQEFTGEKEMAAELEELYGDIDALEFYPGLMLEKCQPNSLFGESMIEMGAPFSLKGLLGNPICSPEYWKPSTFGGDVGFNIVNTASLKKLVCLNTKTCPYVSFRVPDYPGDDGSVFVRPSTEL
Description: In vitro inhibitory concentration against rat prostaglandin G/H synthase 1

Rattus norvegicus [2] = assay: Anti-inflammatory activity in vivo by carrageenan paw edema assay in rat at a dose of 30 mg/kg; assay type: functional
Rattus norvegicus [3] = assay: Antiinflammatory activity in vivo by carrageenan paw edema assay in rat at a dose of 3 mg/kg; assay type: functional
Rattus norvegicus [4] = assay: Antiinflammatory activity in vivo by carrageenan paw edema assay in rat; NA is inactive; assay type: functional, organism-based
Rattus norvegicus [5] = assay: Antiinflammatory activity in vivo by carrageenan paw edema assay in rat at a dose of 3 mg/kg; NA is inactive; assay type: functional, organism-based; set-up: dose 3 mg/kg
Rattus norvegicus [6] = species on record: Rattus norvegicus; details: 30 mg/kg
Description: Antiinflammatory activity in vivo by carrageenan paw edema assay in rat at a dose of 30 mg/kg; NA is not active

Rattus norvegicus [7] = assay: Antiinflammatory activity in vivo by carrageenan paw edema assay in rat at a dose of 30 mg/kg: NA is inactive; assay type: functional, organism-based; set-up: dose 30 mg/kg
Rattus norvegicus [8] = assay: Antiinflammatory activity in vivo by carrageenan paw edema assay in rat at a dose of 30 mg/kg; NA is inactive; assay type: functional, organism-based; set-up: dose 30 mg/kg
Rattus norvegicus [9] = species on record: Rattus norvegicus; assay: Dose producing ulceration in rats; assay type: functional
Rattus norvegicus [10] = assay: Antiinflammatory activity in vivo by carrageenan paw edema assay in rat at a dose of 10 mg/kg; details: read-out: Inhibition

Structure (SMILES)	IC50 [1] [µM]	inhibition in vivo at 30 mg/kg (Rattus norvegicus [2]) [%]	inhibition in vivo at 3 mg/kg (Rattus norvegicus [3]) [%]	also measured
COc1ccc2c(Cc3ccc(C)cc3)ccc(C(C)C(=O)O)c2c1 (stereo unspecified)	2.8	49	30	–
COc1ccc2c(Cc3ccccc3)ccc(C(C)C(=O)O)c2c1 (stereo unspecified)	1.5	58	30	–
COc1ccc(Cc2ccc(C(C)C(=O)O)c3cc(OC)ccc23)cc1 (stereo unspecified)	8.8	45	22	–
CC(C(=O)O)c1ccc(Cc2ccc(F)cc2)c2ccccc12 (stereo unspecified)	2.4	16	–	–
Cc1ccc(-c2cc(C(F)(F)F)nn2-c2ccc(S(N)(=O)=O)cc2)cc1 [CELECOXIB]	–	40	41	–
CCc1ccc2c(Cc3ccc(Cl)cc3)ccc(C(C)C(=O)O)c2c1 (stereo unspecified)	61	–	–	inhibition (Rattus norvegicus [4]): inactive
COc1ccc2c(Cc3ccc(C(C)(C)C)cc3)ccc(C(C)C(=O)O)c2c1 (stereo unspecified)	40.8	32	–	inhibition (Rattus norvegicus [5]): inactive
CSc1ccc2c(Cc3ccc(Cl)cc3)ccc(C(C)C(=O)O)c2c1 (stereo unspecified)	19.9	16	–	–
COc1ccc2c(Cc3ccc(Cl)cc3)c(CC(=O)O)ccc2c1	> 100	–	–	inhibition (Rattus norvegicus [6]): inactive
CCC(C(=O)O)c1ccc(Cc2ccc(F)cc2)c2ccc(OC)cc12 (stereo unspecified)	7.3	–	–	inhibition (Rattus norvegicus [7]): inactive
COc1ccc2c(Cc3ccccc3Cl)ccc(C(C)C(=O)O)c2c1 (stereo unspecified)	2.3	13	5	–
CS(=O)(=O)c1ccc(C2=C(c3ccccc3)C(=O)OC2)cc1 [ROFECOXIB]	–	–	41	–
COc1ccc2c(Cc3ccc(C(C)=O)cc3)ccc(C(C)C(=O)O)c2c1 (stereo unspecified)	218	–	–	inhibition (Rattus norvegicus [5]): inactive; inhibition (Rattus norvegicus [8]): inactive
CCOc1ccc(Cc2ccc(C(C)C(=O)O)c3cc(OC)ccc23)cc1 (stereo unspecified)	> 100	52	27	–
CC(C(=O)O)c1ccc(Cc2ccc(Cl)cc2)c2ccc(S(C)(=O)=O)cc12 (stereo unspecified)	> 100	–	–	inhibition (Rattus norvegicus [2]): inactive
COc1ccc2c(Cc3ccc(Cl)cc3)ccc(C(C)C(=O)O)c2c1 (stereo unspecified)	4.1	50	–	ED50 (Rattus norvegicus [9]): 40 mg/kg
COc1ccc2c(Cc3ccc(Cl)cc3)ccc(CC(=O)O)c2c1	> 100	52	–	–
COc1ccc2c(Cc3ccc(Cl)cc3)cccc2c1	> 100	–	–	inhibition (Rattus norvegicus [8]): inactive
COc1ccc2c(C(C)C(=O)O)ccc(Cc3ccc(F)cc3)c2c1 (stereo unspecified)	> 100	–	–	inhibition (Rattus norvegicus [8]): inactive
COc1ccc2c(Cc3ccc(F)cc3)ccc(C(C)C(=O)O)c2c1 (stereo unspecified)	1.7	53	–	–
CCc1ccc(Cc2ccc(C(C)C(=O)O)c3cc(OC)ccc23)cc1 (stereo unspecified)	> 100	32	–	–
CC(C(=O)O)c1ccc(Cc2ccc(Cl)cc2)c2ccc(Cl)cc12 (stereo unspecified)	> 100	–	–	inhibition (Rattus norvegicus [6]): inactive
COc1ccc2c(c1)c(CC(=O)O)c(C)n2C(=O)c1ccc(Cl)cc1 [INDOMETHACIN]	–	–	–	inhibition in vivo at 10 mg/kg (Rattus norvegicus [10]): 100%
COc1ccc2c(Cc3ccc(Cl)cc3)cc(CC(=O)O)cc2c1	> 100	–	–	inhibition (Rattus norvegicus [8]): inactive
COc1ccc2c(Cc3cccc(Cl)c3)ccc(C(C)C(=O)O)c2c1 (stereo unspecified)	–	0	0	–

Reference: ChEMBL document CHEMBL1133804, “Naphthalene derivatives: A new series of selective cyclooxygenase-2 inhibitors” (Bioorg Med Chem Lett, 2001)
